US11084826B2, “RSV antiviral pyrazolo- and triazolo-pyrimidine compounds” (Janssen Sciences Ireland Unlimited Company, priority 2015, dated 2021)

How the values were obtained:
[1] = Cytotoxicity in HeLa cells, ATP content measured with the ATPlite kit; assay type: cell-based; conditions: human, TOX HELA pCC50
[2] = system: rgRSV224 virus; test: Antiviral activity: inhibition of rgRSV224 (GFP-expressing RSV) replication in HeLa cells, GFP expression read-out; assay type: cell-based, respiratory syncytial virus (RSV); conditions: human respiratory syncytial virus, HeLa, read-out: RSV HELA pEC50, rgRSV224 virus (MOI=1) in HeLa cells, GFP read-out (converted)
Method in brief: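 HeLa cells (3,000/well) were infected with GFP-expressing rgRSV224 (MOI=1) in the presence of 9 serial 4-fold compound dilutions (0.05% DMSO) and incubated at 37° C, 5% CO2. After three days, GFP expression was measured by laser microscopy. EC50 is the concentration giving 50% inhibition of GFP expression.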

SMILES | melting point [°C] | CC50 at 3 days [1] [µM] | EC50 [2] [µM]
CC1CCCCCN1C(=O)c1cc(N2CCCCC2)n2nc(-c3ccc(NC(=O)NCC4CCCO4)cc3)cc2n1 (stereo not drawn) [Compound B11] | 168 to 171 | > 100 | 0.282
CC1CCCCCN1C(=O)c1cc(N(C)C2CCCCC2)n2nc(-c3ccc(NC(=O)NCC4CCCO4)cc3)cc2n1 (stereo not drawn) [Compound B12] | 181 to 182 | > 100 | 0.191
CCc1cc(C(=O)N2CCCCCC2C)nc2cc(-c3ccc(NC(=S)NCC4CCCO4)cc3F)nn12 (stereo not drawn) [Compound B13] | 210 to 215 | > 25.1 | 0.398
CCc1cc(C(=O)N2CCCCCC2C)nc2cc(-c3ccc(NC(=S)NC4CC4)cc3F)nn12 (stereo not drawn) [Compound B14] | 220 to 222 | > 25.1 | 0.437
CCc1cc(C(=O)N2CCCCCC2C)nc2cc(-c3ccc(N/C(=N/C#N)NCC4CCCO4)cc3F)nn12 (stereo not drawn) [Compound B16] | 160 to 165 | > 25.1 | 0.589
CCc1cc(C(=O)N2CCCCCC2C)nc2cc(-c3ccc(N/C(=N/C#N)NC4CC4)cc3F)nn12 (stereo not drawn) [Compound B17] | 225 to 230 | > 25.1 | 0.407
CCc1cc(C(=O)N2CCCCCC2C)nc2cc(-c3ccc(N/C(=N/C#N)NC4CC4)cc3)nn12 (stereo not drawn) [Compound B18] | 222 to 223 | > 25.1 | 1.15
CCc1cc(C(=O)N2CCCCCC2C)nc2cc(-c3ccc(NC(=O)OCCO)cc3F)nn12 (stereo not drawn) [Compound C4] | 175 to 180 | > 25.1 | 0.11
CCc1cc(C(=O)N2CCCCCC2C)nc2cc(-c3ccc(NC(=O)OCC4CCCN4C)cc3F)nn12 (stereo not drawn) [Compound C5] | 165 to 170 | 13.8 | 0.178
CCc1cc(C(=O)N2CCCCCC2C)nc2cc(-c3ccc(NC(=O)OCCO)cc3)nn12 (stereo not drawn) [Compound C6] | 176 to 178 | > 25.1 | 0.537
CCOC(=O)Nc1ccc(-c2cc3nc(C(=O)N4CCCCCC4C)cc(CC)n3n2)cc1 (stereo not drawn) [Compound C7] | 195 to 200 | > 100 | 1.38
CCc1cc(C(=O)N2CCCCCC2C)nc2cc(-c3ccc(NS(C)(=O)=O)cc3F)nn12 (stereo not drawn) [Compound D1] | 135 to 140 | 51.3 | 0.288
CCc1cc(C(=O)N2CCCCCCC2C)nc2cc(-c3ccc(NS(C)(=O)=O)cc3F)nn12 (stereo not drawn) [Compound D3] | 195 to 200 | > 25.1 | 0.145
CCc1cc(C(=O)N2CCCCCC2C)nc2c(F)c(-c3ccc(NS(C)(=O)=O)cc3F)nn12 (stereo not drawn) [Compound D4] | 210 to 212 | > 25.1 | 0.49
CCc1cc(C(=O)N2CCCCCC2C)nc2cc(-c3ccc(NC(=O)c4nccn4C)cc3F)nn12 (stereo not drawn) [Compound E1] | 210 to 215 | > 25.1 | 0.617
CCc1cc(C(=O)N2CCCCCC2C)nc2cc(-c3ccc(NC(=O)Cc4ccncc4)cc3F)nn12 (stereo not drawn) [Compound E2] | 195 to 200 | > 25.1 | 0.0933
CCc1cc(C(=O)N2CCCCCC2C)nc2cc(-c3ccc(NC(=O)Cn4ccnc4)cc3F)nn12 (stereo not drawn) [Compound E3] | 155 to 160 | 6.46 | 0.132
CCCC(=O)Nc1ccc(-c2cc3nc(C(=O)N4CCCCCC4C)cc(CC)n3n2)c(F)c1 (stereo not drawn) [Compound E4] | 175 to 180 | > 25.1 | 0.182
C=CCC(=O)Nc1ccc(-c2cc3nc(C(=O)N4CCCCCC4C)cc(CC)n3n2)c(F)c1 (stereo not drawn) [Compound E5] | 170 to 175 | > 25.1 | 0.138
CCc1cc(C(=O)N2CCCCCC2C)nc2cc(-c3ccc(NC(=O)CC#N)cc3F)nn12 (stereo not drawn) [Compound E6] | 245 to 250 | > 25.1 | 0.166
CCc1cc(C(=O)N2CCCCCC2C)nc2cc(-c3ccc(NC(=O)CCOC)cc3F)nn12 (stereo not drawn) [Compound E7] | 175 to 180 | > 25.1 | 0.117
CCc1cc(C(=O)N2CCCCCC2C)nc2cc(-c3ccc(NC(=O)C4(C)CC4)cc3F)nn12 (stereo not drawn) [Compound E8] | 225 to 230 | > 25.1 | 0.468
CCc1cc(C(=O)N2CCCCCC2C)nc2cc(-c3ccc(NC(=O)CC4CCCCN(C)C4=O)cc3)nn12 (stereo not drawn) [Compound E9] | 255 to 260 | > 25.1 | 0.17
CCc1cc(C(=O)N2CCCCC[C@H]2C)nc2cc(-c3ccc(NC(=O)C4CC4)cc3F)nn12 [Compound E10] | 225 to 230 | > 25.1 | 0.0912

SMILES | melting point [°C] | CC50 at 3 days [1] [µM] | EC50 [2] [µM]
CCc1cc(C(=O)N2CCCCCC2C)nc2cc(-c3ccc(NC(=O)C4CC4)cc3F)nn12 (stereo not drawn) [Compound E11] | 145 | > 25.1 | 0.631
CCc1cc(C(=O)N2CCCCCC2C)nc2c(Cl)c(-c3ccc(NC(=O)C4CC4)cc3F)nn12 (stereo not drawn) [Compound E13] | 245 to 250 | > 25.1 | 1.48
CCc1cc(C(=O)N2CCCCCC2C)nc2cc(-c3ccc(NC(=O)C4CC4)cc3)nn12 (stereo not drawn) [Compound E14] | 265 to 270 | > 50.1 | 0.309
CCc1cc(C(=O)N2CCCCC2C)nc2cc(-c3ccc(NC(=O)C4CC4)cc3)nn12 (stereo not drawn) [Compound E15] | 260 to 265 | > 96.2 | 0.832
CCc1cc(C(=O)N2CCCCCC2C)nc2cc(-c3ccc(NC(=O)C4CC4)cc3C)nn12 (stereo not drawn) [Compound E16] | 223 | > 10 | 1.32
CC1CCCCCN1C(=O)c1cc(N2CCCC2)n2nc(-c3ccc(NC(=O)C4CC4)cc3)cc2n1 (stereo not drawn) [Compound E17] | 282 to 284 | > 50.1 | 0.513
CC1CCCCCN1C(=O)c1cc(N2CCCCC2)n2nc(-c3ccc(NC(=O)C4CC4)cc3)cc2n1 (stereo not drawn) [Compound E18] | 299 to 300 | > 25.1 | 1.26
CC1CCCCCN1C(=O)c1cc(N(C)C2CCCCC2)n2nc(-c3ccc(NC(=O)C4CC4)cc3)cc2n1 (stereo not drawn) [Compound E19] | 261 to 262 | > 100 | 0.537
CCCC(=O)Nc1ccc(-c2cc3nc(C(=O)N4CCCCCC4C)cc(CC)n3n2)cc1 (stereo not drawn) [Compound E20] | 268 to 270 | > 25.1 | 0.692
C=CCC(=O)Nc1ccc(-c2cc3nc(C(=O)N4CCCCCC4C)cc(CC)n3n2)cc1 (stereo not drawn) [Compound E21] | 243 to 244 | > 25.1 | 0.603
CCc1cc(C(=O)N2CCCCCC2C)nc2cc(-c3ccc(NC(=O)c4nccn4C)cc3)nn12 (stereo not drawn) [Compound E22] | 196 to 198 | 21.9 | 1.7
CCc1cc(C(=O)N2CCCCCC2C)nc2cc(-c3ccc(NC(=O)Cc4ccncc4)cc3)nn12 (stereo not drawn) [Compound E23] | 232 to 234 | > 25.1 | 0.646
CCc1cc(C(=O)N2CCCCCC2C)nc2cc(-c3ccc(NC(=O)CCC(=O)O)cc3F)nn12 (stereo not drawn) [Compound E24] | 225 to 230 | > 25.1 | 0.282
CCc1cc(C(=O)N2CCCCCC2C)nc2cc(-c3ccc(NC(=O)CCC(N)=O)cc3F)nn12 (stereo not drawn) [Compound E25] | 155 to 160 | > 25.1 | 0.0617
CCc1cc(C(=O)N2CCCCCC2C)nc2cc(-c3ccc(N4C(=O)CCC4=O)cc3F)nn12 (stereo not drawn) [Compound E26] | 190 to 195 | > 25.1 | 0.407
CCc1cc(C(=O)N2CCCCCC2C)nc2cc(-c3ccc(NC(=O)CCC(=O)NC)cc3F)nn12 (stereo not drawn) [Compound E27] | 215 to 220 | > 25.1 | 0.117
CCc1cc(C(=O)N2CCCCCC2C)nc2cc(-c3ccc(NC(=O)CCC(=O)N(C)C)cc3F)nn12 (stereo not drawn) [Compound E28] | 180 to 185 | > 25.1 | 0.117
CCc1cc(C(=O)N2CCCCCC2C)nc2cc(-c3ccc(NC(=O)CCC(=O)NC)cc3)nn12 (stereo not drawn) [Compound E29] | 204 to 205 | > 25.1 | 0.457
CCc1cc(C(=O)N2CCCCCC2C)nc2cc(-c3csc(NC(=O)C4CC4)n3)nn12 (stereo not drawn) [Compound E30] | 277 to 279 | > 25.1 | 1.82
CCc1cc(C(=O)N2CCCCC2C)nc2cc(-c3ccc(-c4ccncc4)cc3)nn12 (stereo not drawn) [Compound F1] | 150 to 151 | 38 | 0.871
CCc1cc(C(=O)N2CCCCCC2C)nc2cc(-c3ccc(-c4cncnc4)cc3)nn12 (stereo not drawn) [Compound F3] | 185 | > 100 | 0.832
CCc1cc(C(=O)N2CCCCCC2C)nc2cc(-c3ccc(-c4cccnc4)cc3F)nn12 (stereo not drawn) [Compound F4] | 167 to 168 | > 25.1 | 0.724
CCc1cc(C(=O)N2CCCCCC2C)nc2cc(-c3ccc(-c4ccn[nH]4)cc3F)nn12 (stereo not drawn) [Compound F5] | 75 to 76 | > 25.1 | 0.309
CCc1cc(C(=O)N2CCCCCC2C)nc2cc(-c3ccc(-c4cncc(F)c4)cc3F)nn12 (stereo not drawn) [Compound F7] | 95 to 96 | > 25.1 | 2.09
